Results taken from patent publication US20230190663A1, “PRUSSIAN BLUE NANOPARTICLES FUNCTIONALIZATION WITH LATENCY REVERSING AGENTS AND BROADLY NEUTRALIZING ANTIBODIES, AND APPLICATIONS THEREOF” (THE GEORGE WASHINGTON UNIVERSITY, priority 2020, published 2023).

Tests used:
J-LAT cells [1] = experiment: Latency reversal (GFP expression) in J-LAT cells, a model of latent HIV cells; format: cell-based
Procedure: To determine the efficiency of free Poly I:C compared to PolyIC-PBNPs on HIV reactivation, increasing concentrations were added to J-LAT cells. Specifically, nanoparticles (PolyIC-PBNP) were generated at varying Poly I:C concentrations (1.75, 1, 1.5 and 0.75 mg/mL) and added to the cell culture medium to treat the J-LAT cells.

J-LAT cells [2] = experiment: Viability / cytotoxicity of treated J-LAT cells; conditions: 1-15 μL, not transfected, FIG. 4B
Procedure: Example 3. […] J-LAT cells harbor latent, transcriptionally competent HIV provirus that encodes green fluorescent protein (GFP) as an indicator of HIV-1 reactivation. […] Generally for effective latency reversal, free Poly I:C has to be delivered into the cytoplasm of the latently infected cells via transfection.
Next, J-LAT cells were treated with increasing concentrations of Citrate-PBNP, PEI-PBNP or polyIC-PBNP (1 μL, 5 μL, 10 μL and 15 μL with [PBNP]=2 mg/mL and [polyIC]=0.5 mg/mL) where the PBNPs were added to the cell media (i.e., the PBNPs were not transfected into the cells).

[3] = tested on: peripheral blood mononuclear cells (PBMCs); experiment: Flow cytometry of immune cell ratios and activation in treated PBMCs; format: cell-based, human; conditions: compared to untreated PBMCs, FIG. 6G
Procedure: Example 4. Primary peripheral blood mononuclear cells (PBMCs) were isolated from blood collected from healthy human donors. PBMCs were incubated with increasing concentrations of Poly-PBNP (50, 5 and 1 μg/mL of attached PolyIC) and same concentrations of Free-Poly I:C overnight. PMA (Phorbol 12-myristate 13-acetate), a known immune-stimulator, was used as positive control herein. Following this treatment, the number of viable cells was assessed.
Treated PBMCs were subjected to flow cytometry to examine ratios of immune cells in response to Poly-PBNP and Free-Poly I:C treatments. […] There was no change in the amount of NK cells (CD56+ cells) for any of the treatment groups studied, compared to untreated PBMCs (FIG. 6F).

## polyinosinic-polycytidylic acid [Free Poly I:C]
J-LAT cells [1]; HIV reactivation in J-LAT cells, overnight, log(agonist) vs. normalized response, variable slope
  Hill Slope (best-fit value): 1.904
J-LAT cells [1]; J-LAT cells, 1, 5, 10 and 15 μL added to cell media, not transfected, FIG. 4A
  latency reversal at increasing concentrations: reversed latency in a dose dependent manner
J-LAT cells [1]; J-LAT cells, overnight incubation, Table 1 prints none
  EC50 of HIV reactivation (GFP expression): 6.944 µg/mL
J-LAT cells [2]
  cytotoxicity at increasing concentrations: caused cytotoxicity at higher concentrations
[3]
  NK cells activation (CD56+CD69+): no changes
